Experimental findings from patent US20090191283A1, “TREATMENT OF HEADACHES, NECK PAIN, JOINT PAIN AND INFLAMMATORY-TYPE PAIN” (priority 2008, published 2009) are described below.

Assay type in all cases: in vivo, human
The subject of data set [1] is patient with pseudotumor cerebri and morning headache from sleep apnea. The data set is described as follows: Treatment of patient with pseudotumor cerebri. Conditions: for outcome of prior treatment: patient history. On the procedure:
(III) Treatment of Patient with Pseudotumor Cerebri
A patient presented with daily pseudotumor cerebri and morning headache from sleep apnea, with an intensity of 10/10. […] Patient was treated with 0.2 mg/hr nitroglycerin patch applied 2×/day to shoulder+3 pills of 250 mg sodium selenite/day (Twin Labs)

The test system of data set [2] is patients with migraine headaches. Briefly: Treatment of patients with migraine headaches (case reports). As for the experimental part: (I) Treatment of Patients with Migraine Headaches […]
(d) A patient presented with an every other day migraine headache with an intensity of 10/10, and the patient stated “The headaches were so bad that I was unable to work or enjoy my life.” Prior treatment included extensive workup by neurologists.
Treatment: 0.6 mg/hr nitroglycerin patch applied 2×/day (every 12 hours) to ankle for 1 week then shoulder+2 pills of 250 mg sodium selenite/day (Twin Labs) […]

Data set [3] has as its system patient with hemicrania continua. The data set is described as follows: Treatment of patient with hemicrania continua. To be noted: patient history. On the procedure: (II) Treatment of Patient with Hemicrania Continua
A patient presented with daily hemicrania continua with an intensity of 8-9/10. […] Patient was treated with 0.2 mg/hr nitroglycerin patch applied 2×/day to shoulder+2 pills of 250 mg sodium selenite/day (Twin Labs).

For data set [4], the system named is patient with dermatomyositis. The data set is described as follows: Treatment of patient with inflammatory arthropathies: dermatomyositis (case report). On the procedure: (c) A patient presented with a 10/10 pain level from Dermatomyositis, with the following symptoms: morning stiffness, diffuse polyarticular involvement, malaise, proximal muscle weakness, muscle tenderness
Prior treatment included narcotics, antiinflammatories, corticosteroids, disease-modifying anti-rheumatologic drugs (DMARDs) daily.
Treatment: 0.3 mg/hr nitroglycerin patch applied 2×/day (every 12 hours) to shoulder+3 pills of 250 mg sodium selenite/day (Twin Labs)

Data set [5] concerns patients with rheumatoid arthritis. The data set is described as follows: Treatment of patients with inflammatory arthropathies: rheumatoid arthritis (case reports). As for the experimental part: Treatment of Patient with Inflammatory Arthropathies […]
(b) A patient presented with Rheumatoid Arthritis with pain levels of 10/10 and the following symptoms: morning stiffness, diffuse polyarticular involvement, malaise, weakness, myalgias
Prior treatment included narcotics, antiinflammatories, corticosteroids daily.
Treatment: 0.1 mg/hr nitroglycerin patch applied 2×/day (every 12 hours) to shoulder+2 pills of 250 mg sodium selenite/day (Twin Labs) […]

Data set [6] concerns patients with cervicogenic tension headaches. Briefly: Treatment of patients with cervicogenic tension headaches (case reports). On the procedure: (II) Treatment of Patients with Cervicogenic Tension Headaches
(a) A patient presented with cervicogenic tension headache with “severe” neck pain with an intensity of 7 or 8/10. The frequency of headaches was everyday and prior treatment included narcotics, NTHEs, Tylenol.
Treatment: 0.4 mg/hr nitroglycerin patch initially applied 1×/day to shoulder+2 pills of 250 mg sodium selenite/day (Twin Labs)
(b) A patient presented with cervicogenic headache with an intensity of 3-4×/wk. Prior treatment included narcotics, Tylenol, NTHEs. Patient was treated with 0.2 mg/hr nitroglycerin patch applied 1×/day applied to shoulder+2 pills of 250 mg sodium selenite/day (Twin Labs)
(c) A patient presented with migraine/cervicogenic headache with a frequency of everyday and an intensity of 7/10. Prior treatment included narcotics, NTHEs, acetaminophen, morphine cream.
Treatment: 0.4 mg/hr nitroglycerin patch applied 1×/day applied to shoulder+2 pills of 250 mg sodium selenite/day (initially) then 0.1 mg/hr nitroglycerin patch applied 1×/day applied to ankle+2 pills of 250 mg sodium selenite/day
(d) A patient presented with a daily cervicogenic tension headache, with an intensity of 10/10. Prior treatment included narcotics, Tylenol, NTHEs.
Treatment: 0.2 mg/hr nitroglycerin patch applied 1×/day to shoulder+3 pills of 250 mg sodium selenite/day (Twin Labs)
(e) A patient presented with a daily cervicogenic tension headache, with an intensity of 10/10. Prior treatment included narcotics, Tylenol, NTHEs, trigger point injections
Treatment: 0.2 mg/hr nitroglycerin patch applied 1×/day to shoulder+2 pills of 250 mg sodium selenite/day (Twin Labs)
(f) A patient presented with a daily cervicogenic tension headache, with an intensity of 7-8/10. Prior treatment included narcotics, Tylenol, NTHEs, trigger point injections
(g) A patient presented with a daily cervicogenic tension headache, with an intensity of 9-10/10. Prior treatment included narcotics, Tylenol, NTHEs, trigger point injections, BoTox which worked well for 3 months but is too expensive
Treatment: 0.2 mg/hr nitroglycerin patch applied 2×/day to shoulder+3 pills of 250 mg sodium selenite/day (Twin Labs).
(h) A patient presented with a daily cervicogenic tension headache with an intensity of 5/10. Prior treatment included narcotics, Tylenol, NTHEs, trigger point injections.
(i) A patient presented with a daily cervicogenic tension headache, with an intensity of 7-8/10. Prior treatment included narcotics, Tylenol, NTHEs, trigger point injections

Where [7] appears, read: dermatomyositis patient (c), patient history.

Turning to `CC1(C)O[C@@H]2[C@@H](CO[C@@]3(COS(N)(=O)=O)OC(C)(C)O[C@@H]23)O1` [Topamax], the “outcome of prior treatment” value in data set [1] is listed as “without much success”; in data set [2] (migraine patient (d), patient history), “without success”.

`CC(=O)Nc1ccc(O)cc1` [Tylenol]: the figures for the “outcome of prior treatment” value in data set [1] and in data set [3] were “without much success” and “without success”, respectively.

`CNS(=O)(=O)Cc1ccc2[nH]cc(CCN(C)C)c2c1` [Imitrex, sumatriptan]: the “effect of Imitrex on treatment-induced worsened headaches” value in data set [1] (patient on nitroglycerin patch + selenite) is on record as “improved”.

As for `CC(=O)Nc1nnc(S(N)(=O)=O)s1` [Diamox], the “outcome of prior treatment” value in data set [1] is given as “without much success”.

For the compound `C[C@]12C=CC(=O)C=C1CC[C@@H]1[C@@H]2C(=O)C[C@@]2(C)[C@H]1CC[C@]2(O)C(=O)CO` [Prednisone], in data set [4] (setting [7]), the “initial response to prior treatment” value is on record as “excellent response”; the “side effects of prior treatment” value was “steroid-induced osteoporotic rib and wrist fractures”. Also, the “side effects of prior treatment” value in data set [5] (RA patient (b), patient history, daily corticosteroids) was “Vertebral fractures and osteonecrosis”.

For the compound `CNC[C@H](O)c1cccc(O)c1.Cl` [SUDAFED, phenylephrine hydrochloride], the “alleviation of treatment-induced headache by SUDAFED” value (“alleviation” below) in data set [6] (cervicogenic patient (a) on nitroglycerin patch + selenite) is given as “unalleviated”; in data set [6] (cervicogenic patient (g) on nitroglycerin patch + selenite), “partially alleviated”; in data set [6] (cervicogenic patient (i) on nitroglycerin patch + selenite), “totally alleviated”; in data set [6] (cervicogenic patient on nitroglycerin patch + selenite) it was “alleviated”; in data set [2] (migraine patient (a) on nitroglycerin patch + selenite), “partially alleviated”; in data set [2] (migraine patient (b) on nitroglycerin patch + selenite), “partially alleviated”. Further, the “alleviation” value is on record as “not alleviated” in data set [2] (migraine patient (d) on nitroglycerin patch + selenite); “partially alleviated” in data set [2] (migraine patient (h) on nitroglycerin patch + selenite); “partially alleviated” in data set [2] (migraine patient on nitroglycerin patch + selenite); “not alleviated” in data set [2] (migraine/tension patient (c) on nitroglycerin patch + selenite); “partially alleviated” in data set [4] (dermatomyositis patient (c) on nitroglycerin patch + selenite); “partially alleviated” in data set [5] (RA patient (a) on nitroglycerin patch + selenite). Moreover, the “alleviation” value in data set [5] (RA patient (b) on nitroglycerin patch + selenite), in data set [5] (RA patient (d) on nitroglycerin patch + selenite) and in data set [5] (RA patient (e) on nitroglycerin patch + selenite) was “partially alleviated” each time.
